# Measured values: patent US20230011536A1, “MESENCHYMAL STEM CELL DERIVED EXTRACELLULAR VESICLES LOADED WITH AT LEAST ONE PHOTOSENSITIZER AND USES THEREOF FOR THE TREATMENT OF PERITONEAL CARCINOMATOSIS” (priority 2019, published 2023)
# Key:
# [1] = test system: colorectal peritoneal carcinomatosis (CT26); experiment: Survival analysis after PDT in colorectal peritoneal carcinomatosis model; format: in vivo, mouse
# Description: (§1) After 24 h, animals from both groups were anesthetized with isoflurane, a midline laparotomy was performed to allow invasive laser irradiation, and were then irradiated using a 650 nm laser at a fluence of 10 J/cm^2 (100 mW/cm^2 for 100 s). Two irradiations spots were successively realized to allow an illumination of the entire cavity and drops of saline were used to keep the tissue moist. A heating device was used to keep body temperature stable throughout the treatment until the animal was woken up. The peritoneum and the skin were separately sutured immediately after irradiation.
# (§2) Treatment injection was made 12 days after IP inoculation of CT26, followed by invasive illumination 24 hours after. Six groups were performed for each experimentation: (i) no treatment, (ii) laser, (iii) free mTHPC, (iv) EVs-mTHPC, (v) free mTHPC+laser, (vi) EVs-mTHPC+laser.
# Another 10 or 11 mice were selected from each group to evaluate the overall survival until 30 days. The end point was defined as mice death or the cachexia with the loss of 20% of the total weight that required the killing of the animal (as mentioned in the registration).
# [2] = test system: colorectal peritoneal carcinomatosis (CT26); experiment: Early effectiveness of PDT in mouse model of colorectal peritoneal carcinomatosis (histology, TUNEL, immunostaining 48 h after illumination); format: in vivo
# Description: as §1, §2
# Early effectiveness was evaluated 48 hours after illumination to compare: tumoral necrosis, apoptosis, macrophages invasion, lymphocyte recruitment, vascular damage and proliferative index result according to treatment. Long-term effectiveness consisted on a survival analysis function of the treatment.
# For immunohistochemical detection of the chosen markers for tumor tissue, sections were deparaffined and subject to antigen retrieval methods validated for each of the primary antibodies.
# Antibody expression for each analysis was evaluated by the mean number of positive cells in 3 randomly chosen areas (×40 magnification) for 10-15 nodes by treatment. Quantitative analysis of immunostaining preparation was performed using the color segmentation ImageJ plugin developed by the Biomedical Imaging Group at the EPFL, Switzerland.
# TUNEL assay: Cell apoptosis in tumour was detected by a FragEL DNA fragmentation (TUNEL) detection kit (Sigma, Roche, ref 11684795910). In brief the cryostat section were permeabilized with 0.1% Triton and 0.1% (citrate de sodium) in 10×PBS. The slides were then labeled with a TdT reaction mixture for 60 min and were mounted with a mounting solution containing 4′, 6-diamidino-2-phenylindole (DAPI). The apoptotic cells (green) and cell nucleus (blue) was examined using a fluorescence microscopy. The percentage of apoptotic cells was assessed in 2 randomly fields at 40× magnification. The apoptotic index was calculated with image J.
# For image-based quantitative analysis of blood vessels, immunofluorescence detection of CD31 was made after one hour incubation with antiCD31 antibody (BD 553370,1/50) and 45 min incubation with second antibody (Alexa Fluor® 488, ThermoFisher, A11006, dilution 1/200)
# [3] = mTHPC biodistribution after intraperitoneal injection, colorectal peritoneal carcinomatosis model (CT26); format: in vivo, mouse; conditions: for mTHPC level in tumor tissue: 0.5 mg/kg mTHPC, mean±SEM
# Description: All animal experiments were performed in agreement with institutional animal use and care after approval by the local Ethics Committee (registration number for the carcinomatosis model experiment: APAFIS-8617). Six-week-old female BALB/c (provided by Charles River, Arbresle, France and weighing 18 g) and C57BL/6 mice were provided with food and water ad libidum, for colon and ovarian model respectively. The animals were allowed to acclimate to the facility for at least one week before being used for experiments. Colorectal model was induced with an intraperitoneal injection of 5·10^4 CT26 cells resuspended in a volume of 200 μL of physiological saline per inoculum. […] Between the days of IP injection and sacrifice, the wellbeing of the mice was checked twice a week through the search of any sign of pain, dehydration, changing in behavior or loss of weight.
# Briefly, tumor-bearing animals (with colorectal carcinomatosis) were injected at 0.5 mg/kg mTHPC intraperitoneally. Either at 4 h, 15 h, 24 h or 48 h mice were sacrificed to determine mTHPC accumulation in different organs: tumors, liver, spleen, kidney, intestine, peritoneum, skin and lung. First, organs were weighed and grinded in PBS (1 mL per 10 mg of organ). The amount of 0.8 mL of MeOH per 10 mg of organ was added to the solution and vortexed; then, 0.8 mL of chloroform was added. The solution was centrifuged at 1400 rpm for 10 minutes to allow the separation of the aqueous and chloroform phases. The bottom layer consisting of the chloroform and the solubilized mTHPC was transferred for spectroscopy measurements. Fluorescence emission spectra were obtained by a fluorescence spectrophotometer using 415 nm excitation wavelength.
smiles,measurement,setting,value
"Oc1cccc(-c2c3nc(c(-c4cccc(O)c4)c4ccc([nH]4)c(-c4cccc(O)c4)c4nc(c(-c5cccc(O)c5)c5ccc2[nH]5)CC4)C=C3)c1 [mTHPC, 5,10,15,20-Tetrakis(3-hydroxyphenyl)chlorin]",dead mice 4 days after laser illumination (lethal toxicity),"[1]; +laser, […]",91%
same,"histological analysis after PDT (liver, kidney)",[1]; non-vectorized PDT group,hepatic and kidney necrosis
same,CD8 detection in tumor,[2]; +laser,1.88%±0.2
same,CD31 expression (fluorescence signal),[2]; +laser,0.55·10^7±1.0·10^6
same,TUNEL mean fluorescence per mm^2 of tumor (apoptosis),[2]; +laser,2.17±0.2
same,anti CD3 labeling in tumor (T-lymphocyte infiltration),[2]; +laser,2.51%±0.3
same,macrophage intra-tumor invasion (anti F4/80),[2]; +laser,41.45%±2.2
same,mean Ki67-index,[2]; +laser,26.2%±4.5
same,proliferation index reduced by a factor of,[2]; photoactivated (+laser),2
same,CD8 detection in tumor,[2]; without laser,0.44%±0.07
same,CD31 expression (fluorescence signal),[2]; without laser,1.06·10^7±1.4·10^6
same,TUNEL mean fluorescence per mm^2 of tumor (apoptosis),[2]; without laser,0.86±0.4
same,anti CD3 labeling in tumor (T-lymphocyte infiltration),[2]; without laser,0.33%±0.07
same,macrophage intra-tumor invasion (anti F4/80),[2]; without laser,13.19%±1.4
same,mean Ki67-index,[2]; without laser,45.52±3.4%
same,mTHPC level in tumor tissue,[3]; 4 h after IP injection,0.10±0.01 ng/mg tissue
same,mTHPC level in tumor tissue,[3]; 15 h after IP injection,0.15±0.04 ng/mg tissue
same,mTHPC level in tumor tissue,[3]; 24 h after IP injection,0.16±0.05 ng/mg tissue
same,mTHPC level in tumor tissue,[3]; 48 h after IP injection,0.10±0.00 ng/mg tissue
same,"tumor-to-organ ratio, total average",[3]; average over all time points,2.5
